Experimental data reported in ChEMBL document CHEMBL2046416, “An amino-indazole scaffold with spectrum selective kinase inhibition of FLT3, PDGFRα and kit” (Bioorg Med Chem Lett, 2012).

Legend:
[1] = system: MOLT-3; assay: Antiproliferative activity against human MOLT3 cells expressing FLT3 gene; assay type: functional, cell-based
[2] = system: BaF3; assay: Antiproliferative activity against mouse BAF3 cells expressing Kit […] mutant gene; assay type: functional, cell-based
[3] = system: BaF3; assay: Antiproliferative activity against wild type mouse BAF3 cells; assay type: cell-based
[4] = system: BaF3; assay: Antiproliferative activity against mouse BAF3 cells expressing PDGFRalpha T674M mutant gene; assay type: functional, cell-based

- EC50 [1]: > 10 µM
- EC50 [2]: > 10 µM
- EC50 [3]: > 10 µM
- EC50 [4]: > 10 µM
Compound: O=C(NCCN1CCOCC1)c1cccc(-c2ccc3c(NC(=O)C4CC4)n[nH]c3c2)c1
